Assay results reported in patent US8063247B2, “Bicyclic aryl and heteroaryl receptor modulators” (Prosidion Limited, priority 2007, dated 2011).

Assays:
mu-opioid receptor [1] = target: T1, mu-opioid receptor (Homo sapiens, UniProt P35372); assay: Competition binding assay (3H-DAMGO); conditions: mu-opioid receptor expressing membranes, 0.5 nM 3H-DAMGO
Description: Competition Binding Assays
Mu-, kappa- or delta-opioid receptor expressing membranes (5-15 μg/well) were suspended in 50 mM Tris buffer pH 7.6 containing 5 mM MgCl2 and were incubated on 96-well plates with test compound or vehicle (1% DMSO) and either 0.5 nM ^3H-DAMGO, 0.8 nM ^3H-U-69,595 or 1.1 nM ^3H-DPDPE respectively in a total volume of 200 μL for 90 min at rt (22° C.). The contents of the wells were filtered and washed 5 times with chilled 50 mM Tris buffer pH 7.6 through H2O pre-soaked GF/B filters using a Perkin Elmer Filtermate. The filters were dried and upon application of scintillant the bound radioactive content for each well determined by scintillation counting in a Wallac TriLux Microbeta scintillation counter. Non-specific binding was determined in the presence of 2 μM Naloxone. IC50 values were determined by plotting log concentration test compound against specific binding and subsequent Ki values calculated.

mu-opioid receptor [2] = target: T1, mu-opioid receptor; assay: GTPγS functional binding assay (DAMGO-stimulated); assay type: biochemical; conditions: mu-opioid receptor expressing membranes, agonist DAMGO 10 nM, 35S-GTPγS binding
Description: GTPγS Functional Binding Assays
Mu-, kappa- or delta-opioid receptor expressing membranes (5-20 μg/well) were suspended in 50 mM HEPES buffer pH 7.6 containing 3 mM MgCl2, 120 mM NaCl, 150 pM GTPγS, 10 μg/mL saponin and 3 μM GDP (μ-opioid receptor assay) or 5 μM GDP (κ- and δ-opioid receptor assay) and were pre-incubated on 96-well plates with test compound or vehicle (1% DMSO) in a total volume of 160 μL for 10 min at rt (22° C.). Specific agonists DAMGO (10 nM final concentration), U-50,488 (30 nM final concentration) or SNC-80 (10 nM final concentration) were added respectively and the plates pre-incubated for a further 15 min at rt (22° C.) ^35S-GTPγS at a final concentration in the assay of 150 pM was then added to provide a total volume per well of 200 μL and the plates incubated for 45 min at 30° C. The contents of the wells were filtered and washed 5 times with chilled 50 mM Tris buffer pH 7.6 through H2O pre-soaked GF/B filters using a Perkin Elmer Filtermate. The filters were dried and upon application of scintillant the bound radioactive content for each well determined by scintillation counting in a Wallac TriLux Microbeta scintillation counter. Non-specific binding was determined in the presence of 10 μM GTPγS. IC50 values were determined by plotting log concentration test compound against percentage increase over non-stimulated ^35S-GTPγS binding.

T1 sequence (P35372 whole entry, species assumed): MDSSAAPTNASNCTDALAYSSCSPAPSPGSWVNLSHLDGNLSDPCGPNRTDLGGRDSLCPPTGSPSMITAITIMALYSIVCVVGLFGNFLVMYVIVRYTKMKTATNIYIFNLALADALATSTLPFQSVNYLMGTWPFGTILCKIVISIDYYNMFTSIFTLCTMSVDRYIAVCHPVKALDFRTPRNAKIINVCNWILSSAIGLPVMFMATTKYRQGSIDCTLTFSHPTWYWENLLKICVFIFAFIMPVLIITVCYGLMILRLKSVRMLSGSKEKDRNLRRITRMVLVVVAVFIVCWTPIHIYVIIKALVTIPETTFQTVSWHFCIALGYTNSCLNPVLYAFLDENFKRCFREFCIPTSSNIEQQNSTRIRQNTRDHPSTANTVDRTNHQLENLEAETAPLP

| SMILES | Ki (mu-opioid receptor [1]) [nM] | IC50 (mu-opioid receptor [2]) [nM] |
| --- | --- | --- |
| Cc1cc(CNCCC2C3CC4CC(C3)CC2C4)ccc1-c1cccc(C(N)=O)c1 (stereo not shown) [Example 46, 4′-[(2-Adamantan-2-yl-ethylamino)methyl]-2′-methylbiphenyl-3-carboxylic acid amide] | < 100 | < 100 |
| NC(=O)c1cccc(-c2ccc(CNCCC3C4CC5CC(C4)CC3C5)cn2)c1 (stereo not shown) [Example 84, 3-{5-[(2-Adamantan-2-ylethylamino)methyl]-pyridin-2-yl}benzamide] | < 100 | < 100 |
